Laboratory results taken from ChEMBL document CHEMBL1122681, “(Acylaryloxy)acetic acid diuretics. 5. [(2-Alkyl- and 2,2-disubstituted-1,3-dioxo-5-indanyl)oxy]acetic acids” (J Med Chem, 1984).
Values belong to the molecule of their own block, whether it stands above or below them.

Assays:
Canis familiaris [1] = test: Compound was evaluated for diuretic activity, in female mongrel dogs by measuring volume of urine, after iv administration of 5 mg/kg (control/compound treatment results) Control = 1; type: ADME, organism-based, Canis lupus familiaris; parameters: dose 5 mg/kg, route intravenous; conditions: dog, in vivo
Pan troglodytes [2] = test: Compound was evaluated for diuretic activity in chimpanzee measured as increase in volume of urine at 1.25 mg/kg; type: functional
Pan troglodytes [3] = test: Compound was evaluated for diuretic activity in chimpanzee measured as increase in volume of urine at 5 mg/kg; type: functional
Pan troglodytes [4] = test: Compound was evaluated for diuretic activity in chimpanzee measured as clearance of […] and urate after intravenous administration of 1.25 mg/kg; type: functional, Urine
Pan troglodytes [5] = test: Compound was evaluated for diuretic activity in chimpanzee measured as clearance of […] and urate after peroral administration of 5 mg/kg; type: functional, Urine; conditions: route oral
Pan troglodytes [6] = test: Compound was evaluated for diuretic activity in chimpanzee measured as increase in the number of microequivalents of Na+ /min at 1.25 mg/kg; type: functional, Urine
Pan troglodytes [7] = test: Compound was evaluated for diuretic activity in chimpanzee measured as increase in the number of microequivalents of Na+ /min at 5 mg/kg; type: functional, Urine
Pan troglodytes [8] = test: Compound was evaluated for diuretic activity in chimpanzee measured as increase in the number of microequivalents of Cl- electrolyte/min at 1.25 mg/kg; type: functional, Urine
Pan troglodytes [9] = test: Compound was evaluated for diuretic activity in chimpanzee measured as increase in the number of microequivalents of Cl- electrolyte/min at 5 mg/kg; type: functional, Urine
Pan troglodytes [10] = test: Compound was evaluated for diuretic activity in chimpanzee measured as increase in the number of microequivalents of K+ /min at 1.25 mg/kg; type: functional, Urine
Canis familiaris [11] = test: Compound was evaluated for diuretic activity, in female mongrel dogs by measuring amount of K+ in urine after iv administration of 5 mg/kg (control/compound treatment results) Control = 10; type: functional, Canis lupus familiaris
Canis familiaris [12] = test: Compound was evaluated for diuretic activity, in female mongrel dogs by measuring amount of Cl- in urine after iv administration of 5 mg/kg (control/compound treatment results) Control = 4; type: functional, Canis lupus familiaris
Pan troglodytes [13] = test: Compound was evaluated for diuretic activity in chimpanzee measured as increase in the number of microequivalents of K+ /min at 5 mg/kg; type: functional, Urine
Canis familiaris [14] = test: Compound was evaluated for diuretic activity, in female mongrel dogs by measuring amount of Na+ in urine after iv administration of 5 mg/kg (control/compound treatment results) Control = 22; type: functional, Canis lupus familiaris
[15] = volume of urine at 3 mg/kg; type: ADME, organism-based; parameters: dose 3 mg/kg; conditions: in vivo
[16] = volume of urine at 81 mg/kg; type: ADME, organism-based; parameters: dose 81 mg/kg; conditions: in vivo
[17] = volume of urine at 9 mg/kg; type: ADME, organism-based; parameters: dose 9 mg/kg; conditions: in vivo
Canis familiaris [18] = test: Compound was evaluated for diuretic activity, in female mongrel dogs by measuring volume of urine, after iv administration of 5 mg/kg (control/compound treatment results) Control = 2; type: ADME, organism-based, Canis lupus familiaris; parameters: dose 5 mg/kg, route intravenous; conditions: dog, in vivo
Pan troglodytes [19] = test: Compound was evaluated for diuretic activity in chimpanzee measured as increase in volume of urine at 1 mg/kg; type: functional
Pan troglodytes [20] = test: Compound was evaluated for diuretic activity in chimpanzee measured as clearance of […] and urate after intra venous administration of.1 5 mg/kg.; type: functional, Urine
Pan troglodytes [21] = test: Compound was evaluated for diuretic activity in chimpanzee measured as increase in the number of microequivalents of Na+ /min at 1 0.5 mg/kg; type: functional, Urine
Pan troglodytes [22] = test: Compound was evaluated for diuretic activity in chimpanzee measured as increase in the number of microequivalents of Cl- electrolyte/min at 1.5 mg/kg; type: functional, Urine
Canis familiaris [23] = test: Compound was evaluated for diuretic activity, in female mongrel dogs by measuring amount of K+ in urine after iv administration of 5 mg/kg (control/compound treatment results) Control = 13; type: functional, Canis lupus familiaris
Canis familiaris [24] = test: Compound was evaluated for diuretic activity, in female mongrel dogs by measuring amount of Cl- in urine after iv administration of 5 mg/kg (control/compound treatment results) Control = 5; type: functional, Canis lupus familiaris
Pan troglodytes [25] = test: Compound was evaluated for diuretic activity in chimpanzee measured as increase in the number of microequivalents of K+ /min at 1.5 mg/kg; type: functional, Urine
Canis familiaris [26] = test: Compound was evaluated for diuretic activity, in female mongrel dogs by measuring amount of Na+ in urine after iv administration of 5 mg/kg (control/compound treatment results) Control = 59; type: functional, Canis lupus familiaris
Canis familiaris [27] = test: Compound was evaluated for diuretic activity, administered orally in female mongrel dogs (5 mg/kg) measured as milliequivalents of Cl-; type: functional, Canis lupus familiaris, Urine
Canis familiaris [28] = test: Compound was evaluated for diuretic activity, administered orally in female mongrel dogs (5 mg/kg) measured as milliequivalents of K; type: functional, Canis lupus familiaris, Urine
Canis familiaris [29] = test: Compound was evaluated for diuretic activity, administered orally in female mongrel dogs (5 mg/kg) measured as milliequivalents of Na; type: functional, Canis lupus familiaris, Urine
Canis familiaris [30] = species on record: Canis familiaris; test: Volume of urine in dog; type: functional, Canis lupus familiaris
Rattus norvegicus [31] = test: Compound was evaluated for diuretic activity administered orally in female rats measured as milliequivalents of Na+x 100 / cage at 81 mg/kg; type: functional, Urine; conditions: route oral
Rattus norvegicus [32] = test: Compound was evaluated for diuretic activity administered orally in female rats measured as milliequivalents of Na+x 100 / cage at 9 mg/kg; type: functional, Urine; conditions: route oral
Rattus norvegicus [33] = test: Compound was evaluated for diuretic activity administered orally in female rats measured as milliequivalents of Cl-+x 100 / cage at 27 mg/kg; type: functional, Urine; conditions: route oral
Rattus norvegicus [34] = test: Compound was evaluated for diuretic activity administered orally in female rats measured as milliequivalents of Cl-x 100 / cage at 3 mg/kg; type: functional, Urine; conditions: route oral
Rattus norvegicus [35] = test: Compound was evaluated for diuretic activity administered orally in female rats measured as milliequivalents of Cl-x 100 / cage at 81 mg/kg; type: functional, Urine; conditions: route oral
Rattus norvegicus [36] = test: Compound was evaluated for diuretic activity administered orally in female rats measured as milliequivalents of Cl-x 100 / cage at 9 mg/kg; type: functional, Urine; conditions: route oral
Rattus norvegicus [37] = test: Compound was evaluated for diuretic activity administered orally in female rats measured as milliequivalents of K+x 100 / cage at 27 mg/kg; type: functional, Urine; conditions: route oral
Rattus norvegicus [38] = test: Compound was evaluated for diuretic activity administered orally in female rats measured as milliequivalents of K+x 100 / cage at 3 mg/kg; type: functional, Urine; conditions: route oral
Rattus norvegicus [39] = test: Compound was evaluated for diuretic activity administered orally in female rats measured as milliequivalents of K+x 100 / cage at 81 mg/kg; type: functional, Urine; conditions: route oral
Rattus norvegicus [40] = test: Compound was evaluated for diuretic activity administered orally in female rats measured as milliequivalents of K+x 100 / cage at 9 mg/kg; type: functional, Urine; conditions: route oral
Rattus norvegicus [41] = test: Compound was evaluated for diuretic activity administered orally in female rats measured as milliequivalents of Na+x 100 / cage at 27 mg/kg; type: functional, Urine; conditions: route oral
Rattus norvegicus [42] = test: Compound was evaluated for diuretic activity administered orally in female rats measured as milliequivalents of Na+x 100 / cage at 3 mg/kg; type: functional, Urine; conditions: route oral
[43] = volume of urine at 27 mg/kg; type: ADME, organism-based; parameters: dose 27 mg/kg; conditions: in vivo

Urine volume (Canis familiaris [1]): 2 mL/min
Compound: CCC1(CC)C(=O)c2cc(OCC(=O)O)c(C)c(C)c2C1=O
Increase in volume (Pan troglodytes [2]): 2.2 mL/min
Increase in volume (Pan troglodytes [3]): 0.6 mL/min
Delta C urate / delta C insulin (Pan troglodytes [4]): 0.258
Delta C urate / delta C insulin (Pan troglodytes [5]): 0.045
Increase (Pan troglodytes [6]): 243
Increase (Pan troglodytes [7]): 103
Increase (Pan troglodytes [8]): 288
Increase (Pan troglodytes [9]): 120
Increase (Pan troglodytes [10]): 46
Activity (Canis familiaris [11]): 21 u equiv min-1
Activity (Canis familiaris [12]): 42 u equiv min-1
Increase (Pan troglodytes [13]): 32
Activity (Canis familiaris [14]): 106 u equiv min-1

Urine volume [15]: 37 mL
Urine volume [16]: 33 mL
Urine volume [17]: 30 mL
Urine volume (Canis familiaris [18]): 3 mL/min
Urine volume [43]: 32 mL
Compound: NS(=O)(=O)c1cc2c(cc1Cl)NCNS2(=O)=O [HYDROCHLOROTHIAZIDE]
Increase in volume (Pan troglodytes [19]): 1.8 mL/min
Increase in volume (Pan troglodytes [3]): 1 mL/min
Delta C urate / delta C insulin (Pan troglodytes [20]): 0.01
Delta C urate / delta C insulin (Pan troglodytes [5]): -0.015
Increase (Pan troglodytes [21]): 275
Increase (Pan troglodytes [7]): 144
Increase (Pan troglodytes [22]): 187
Increase (Pan troglodytes [9]): 198
Activity (Canis familiaris [23]): 27 u equiv min-1
Activity (Canis familiaris [24]): 11 u equiv min-1
Increase (Pan troglodytes [25]): 25
Increase (Pan troglodytes [13]): 93
Activity (Canis familiaris [26]): 193 u equiv min-1
Activity (Canis familiaris [27]): 7
Activity (Canis familiaris [28]): 18
Activity (Canis familiaris [29]): 50
Volume of urine (Canis familiaris [30]): 25
Activity (Rattus norvegicus [31]): 154
Activity (Rattus norvegicus [32]): 133
Activity (Rattus norvegicus [33]): 191
Activity (Rattus norvegicus [34]): 146
Activity (Rattus norvegicus [35]): 163
Activity (Rattus norvegicus [36]): 143
Activity (Rattus norvegicus [37]): 61
Activity (Rattus norvegicus [38]): 50
Activity (Rattus norvegicus [39]): 61
Activity (Rattus norvegicus [40]): 33
Activity (Rattus norvegicus [41]): 168
Activity (Rattus norvegicus [42]): 127
